Data as given in article PMC12827894, “Structure-guided design of picomolar-level macrocyclic TRPC5 channel inhibitors with antidepressant activity” (Acta Pharmaceutica Sinica. B, 2025).
pIC50: −log10 of the molar value.

Tests used:
COX1 = COX1 (Homo sapiens, UniProt P23219)
Cav1.2 = molecular target: T1, Cav1.2 (Homo sapiens, UniProt Q13936); format: cell-based; conditions: Cav1.2, 5 μmol/L
T1 construct: ICE Bioscience ICESTP SafetyOne44 Panel

AR = molecular target: T2, AR (Homo sapiens, UniProt P10275); test: cell-based; format: cell-based
T2 construct: purchased ICE Bioscience ICESTP™ SafetyOne44 Panel
T2 sequence (P10275 whole entry): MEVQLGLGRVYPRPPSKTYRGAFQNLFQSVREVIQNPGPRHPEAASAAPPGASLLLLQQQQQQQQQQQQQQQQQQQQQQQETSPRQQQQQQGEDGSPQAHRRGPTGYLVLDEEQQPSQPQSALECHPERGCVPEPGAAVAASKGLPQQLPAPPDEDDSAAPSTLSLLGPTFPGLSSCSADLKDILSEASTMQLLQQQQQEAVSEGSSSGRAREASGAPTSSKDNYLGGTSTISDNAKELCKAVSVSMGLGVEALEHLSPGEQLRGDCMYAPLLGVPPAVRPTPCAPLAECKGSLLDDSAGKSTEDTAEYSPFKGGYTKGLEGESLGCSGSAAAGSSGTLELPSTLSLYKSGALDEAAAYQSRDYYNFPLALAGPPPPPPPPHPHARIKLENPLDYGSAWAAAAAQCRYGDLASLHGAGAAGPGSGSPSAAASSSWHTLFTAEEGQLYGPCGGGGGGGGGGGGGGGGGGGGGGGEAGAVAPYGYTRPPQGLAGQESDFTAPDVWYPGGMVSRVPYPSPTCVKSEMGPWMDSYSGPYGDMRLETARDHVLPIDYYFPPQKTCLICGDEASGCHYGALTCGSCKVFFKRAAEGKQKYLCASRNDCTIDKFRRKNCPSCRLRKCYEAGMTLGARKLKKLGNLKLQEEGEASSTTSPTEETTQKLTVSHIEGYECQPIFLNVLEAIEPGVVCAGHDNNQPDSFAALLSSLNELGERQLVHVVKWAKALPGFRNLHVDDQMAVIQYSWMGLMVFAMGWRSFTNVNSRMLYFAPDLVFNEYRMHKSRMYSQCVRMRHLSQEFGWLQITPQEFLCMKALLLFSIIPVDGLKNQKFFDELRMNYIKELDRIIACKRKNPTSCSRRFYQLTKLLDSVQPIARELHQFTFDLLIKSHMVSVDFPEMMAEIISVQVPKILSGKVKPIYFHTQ

TRPC1/5 = molecular target: T3, TRPC1/5 (Homo sapiens, UniProt P48995+Q9UL62); test: Whole-cell patch-clamp, TRPC1/5 heteromer, 100 nmol/L EA; format: cell-based; conditions: read-out: IC50, TRPC1/5
T3 construct: full-length wild-type or mutant TRPC5 was cloned into a pcDNA3.1 vector; expressed in transfected cells; host or cells: HEK293T
T3 sequence (P48995 whole entry): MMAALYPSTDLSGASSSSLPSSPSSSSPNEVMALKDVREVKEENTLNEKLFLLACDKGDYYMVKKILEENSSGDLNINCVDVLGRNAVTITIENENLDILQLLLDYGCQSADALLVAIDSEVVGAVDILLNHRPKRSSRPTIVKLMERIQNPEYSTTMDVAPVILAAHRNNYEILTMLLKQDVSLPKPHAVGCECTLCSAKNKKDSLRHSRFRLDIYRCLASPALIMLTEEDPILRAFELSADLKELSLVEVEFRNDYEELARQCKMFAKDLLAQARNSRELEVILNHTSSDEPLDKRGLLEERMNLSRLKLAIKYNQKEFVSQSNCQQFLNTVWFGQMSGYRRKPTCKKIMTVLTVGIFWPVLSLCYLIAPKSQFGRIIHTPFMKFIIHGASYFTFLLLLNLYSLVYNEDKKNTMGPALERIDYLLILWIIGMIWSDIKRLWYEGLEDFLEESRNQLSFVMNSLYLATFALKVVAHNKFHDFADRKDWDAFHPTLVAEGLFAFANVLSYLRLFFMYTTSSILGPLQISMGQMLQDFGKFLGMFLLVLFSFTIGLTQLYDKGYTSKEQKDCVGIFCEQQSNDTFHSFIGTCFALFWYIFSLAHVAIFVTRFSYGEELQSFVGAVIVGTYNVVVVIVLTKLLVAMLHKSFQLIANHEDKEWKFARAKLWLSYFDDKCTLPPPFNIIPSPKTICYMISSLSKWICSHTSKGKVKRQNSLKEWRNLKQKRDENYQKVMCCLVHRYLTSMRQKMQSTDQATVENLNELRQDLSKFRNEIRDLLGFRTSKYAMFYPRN
T3 sequence (Q9UL62 whole entry): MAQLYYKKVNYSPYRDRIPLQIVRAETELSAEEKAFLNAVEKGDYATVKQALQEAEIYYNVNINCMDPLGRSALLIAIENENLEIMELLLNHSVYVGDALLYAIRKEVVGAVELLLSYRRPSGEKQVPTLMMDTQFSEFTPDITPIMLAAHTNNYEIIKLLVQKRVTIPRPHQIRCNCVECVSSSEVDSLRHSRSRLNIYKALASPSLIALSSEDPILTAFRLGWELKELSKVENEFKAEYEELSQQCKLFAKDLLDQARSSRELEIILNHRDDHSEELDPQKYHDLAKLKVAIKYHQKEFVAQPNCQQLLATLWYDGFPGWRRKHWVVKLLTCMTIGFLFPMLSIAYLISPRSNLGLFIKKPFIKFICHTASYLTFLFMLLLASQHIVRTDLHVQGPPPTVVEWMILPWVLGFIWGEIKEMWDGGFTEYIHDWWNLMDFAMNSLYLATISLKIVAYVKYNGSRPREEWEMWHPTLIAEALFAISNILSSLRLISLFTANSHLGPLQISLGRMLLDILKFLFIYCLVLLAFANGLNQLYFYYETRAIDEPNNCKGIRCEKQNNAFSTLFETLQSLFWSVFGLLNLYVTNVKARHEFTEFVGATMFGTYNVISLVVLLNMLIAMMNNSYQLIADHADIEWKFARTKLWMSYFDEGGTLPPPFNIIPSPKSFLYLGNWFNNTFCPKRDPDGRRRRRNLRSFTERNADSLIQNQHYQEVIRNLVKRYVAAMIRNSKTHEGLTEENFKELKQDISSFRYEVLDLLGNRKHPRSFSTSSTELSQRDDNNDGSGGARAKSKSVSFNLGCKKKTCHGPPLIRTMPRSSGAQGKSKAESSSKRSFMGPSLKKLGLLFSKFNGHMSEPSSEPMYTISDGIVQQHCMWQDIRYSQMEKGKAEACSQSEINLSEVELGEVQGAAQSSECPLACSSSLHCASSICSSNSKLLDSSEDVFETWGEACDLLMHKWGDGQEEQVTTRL
Description: Given that TRPC4 and TRPC5 are highly similar and often form heteromeric with TRPC1, we evaluated JDIC-127's activity on TRPC4, TRPC1/4, and TRPC1/5 using whole-cell patch-clamp recordings under agonist stimulation with 100 nmol/L EA in HEK293T cells. […].
For electrophysiological activity testing of compounds against TRPC4 and TRPC5, stably expressed TRPC5 or TRPC4 cells were used for whole-cell patch-clamp recordings, employing a HEKA EPC10 amplifier and […] software (https://www.heka.com/downloads/downloads_main.html#down_patchmaster). Prior to recording, cells were induced with 1 μg/mL tetracycline for 24 h. For TRPC1/4 or TRPC1/5 heteromers, plasmids TRPC1 and TRPC5 or TRPC1 and TRPC4 were co-transfected into HEK293T cells. After 48 to 72 h of transfection, testing was performed. A 1-s ramp protocol from −100 to +100 mV at 0.2 Hz was applied, as previously described. The extracellular solution consisted of 140 mmol/L NaCl, 1 mmol/L MgCl2, 2 mmol/L CaCl2, 10 mmol/L Hepes, 5 mmol/L KCl, and 10 mmol/L D-glucose, with pH adjusted to 7.4 using NaOH. […] The half-maximal inhibitory concentration (IC50) of drugs was determined by recording currents at a +100 mV pulse and analyzing current amplitudes at varying drug concentrations, with IC50 values calculated using the Hill equation. […]

COX1, sequence (P23219 24-599): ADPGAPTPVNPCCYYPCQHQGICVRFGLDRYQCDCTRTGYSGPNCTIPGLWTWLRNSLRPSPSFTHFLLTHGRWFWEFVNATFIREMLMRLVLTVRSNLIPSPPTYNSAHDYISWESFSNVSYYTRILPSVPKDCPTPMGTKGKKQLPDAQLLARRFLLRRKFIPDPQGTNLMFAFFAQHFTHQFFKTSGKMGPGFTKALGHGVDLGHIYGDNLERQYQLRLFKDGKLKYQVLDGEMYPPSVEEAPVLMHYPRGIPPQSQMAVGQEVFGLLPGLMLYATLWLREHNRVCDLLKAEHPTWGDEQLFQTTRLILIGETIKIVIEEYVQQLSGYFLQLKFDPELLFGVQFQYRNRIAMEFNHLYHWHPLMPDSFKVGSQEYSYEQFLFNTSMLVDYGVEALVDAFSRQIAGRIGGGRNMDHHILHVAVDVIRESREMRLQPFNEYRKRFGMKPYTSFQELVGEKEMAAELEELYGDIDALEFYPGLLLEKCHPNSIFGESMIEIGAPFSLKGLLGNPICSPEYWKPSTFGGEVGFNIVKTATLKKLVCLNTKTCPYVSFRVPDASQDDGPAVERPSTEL

O=c1c2c3nc(n2Cc2ccc(Cl)cc2)Oc2ccc(F)c(c2)OCCCCCCn3c(=O)n1CCCO [JDIC-127]
Antagonist JDIC-127 @10 μmol/L (COX1): –5.92% | Antagonist JDIC-127 @5 μmol/L (Cav1.2): 20.23% | Agonist JDIC-127 @10 μmol/L (AR; agonist mode): 0.06% | inhibition at 10 µM (AR; antagonist mode, 10 μmol/L, read-out: Antagonist JDIC-127 @10 μmol/L): -7.02% | pIC50 (TRPC1/5): 9.45
